Measurements: patent US8802597B2, “Herbicidal pyrimidines” (E I du Pont de Nemours and Company, priority 2003, dated 2014)
Like-named read-outs stand apart in the source and are kept apart here.

Assays:
Experiment in all cases: Test C pre/postemergence
Type in all cases: in vivo
kochia (Kochia scoparia) = conditions: Bassia scoparia; for pest or weed control at 31 g/ha: 31 g ai/ha; for pest or weed control at 62 g/ha: 62 g ai/ha; for pest or weed control at 125 g/ha: 125 g ai/ha; for pest or weed control at 250 g/ha: 250 g ai/ha
Outline: (§1)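 Applications: preemergence onto seeded soil and postemergence onto 1- to 4-leaf seedlings, compound carried in non-phytotoxic solvent plus surfactant. Kept in greenhouse 12 to 14 days. Scored visually relative to untreated controls, 0 (no effect) to 100 (complete control).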

[1] = tested on: common ragweed (Ambrosia elatior); conditions: Ambrosia artemisiifolia; for pest or weed control at 31 g/ha: 31 g ai/ha; for pest or weed control at 62 g/ha: 62 g ai/ha; for pest or weed control at 125 g/ha: 125 g ai/ha; for pest or weed control at 250 g/ha: 250 g ai/ha
Outline: as §1

[2] = tested on: eastern black nightshade (Solanum ptycanthum); conditions: Solanum, pre-emergence, Preemergence, read-out: Plant response rating, Nightshade
Outline: as §1

[3] = tested on: Surinam grass (Brachiaria decumbens); conditions: Urochloa decumbens; for pest or weed control at 125 g/ha: 125 g ai/ha; for pest or weed control at 31 g/ha: 31 g ai/ha; for pest or weed control at 62 g/ha: 62 g ai/ha; for pest or weed control at 250 g/ha: 250 g ai/ha
Outline: as §1

[4] = tested on: johnsongrass (Sorghum halepense); conditions: Sorghum halepense; for pest or weed control at 31 g/ha: 31 g ai/ha; for pest or weed control at 62 g/ha: 62 g ai/ha; for pest or weed control at 125 g/ha: 125 g ai/ha; for pest or weed control at 250 g/ha: 250 g ai/ha
Outline: as §1

[5] = tested on: cocklebur (Xanthium strumarium); conditions: Xanthium strumarium; for pest or weed control at 31 g/ha: 31 g ai/ha; for pest or weed control at 62 g/ha: 62 g ai/ha; for pest or weed control at 125 g/ha: 125 g ai/ha; for pest or weed control at 250 g/ha: 250 g ai/ha
Outline: as §1

[6] = post-emergence, Postemergence, scale 0 to 100 (0 no effect, 100 complete control), read-out: Kochia plant response rating
[7] = pre-emergence, Preemergence, scale 0 to 100, 0 no effect, 100 complete control, read-out: Plant response rating, Kochia
[8] = pre-emergence, Preemergence, scale 0 to 100, read-out: Plant response rating, Kochia
[9] = post-emergence, Postemergence, scale 0 to 100 (0 no effect, 100 complete control), read-out: Ragweed plant response rating
[10] = pre-emergence, Preemergence, scale 0 to 100, 0 no effect, 100 complete control, read-out: Plant response rating, Ragweed
[11] = pre-emergence, Preemergence, scale 0 to 100, read-out: Plant response rating, Ragweed
[12] = post-emergence, Postemergence, scale 0 to 100 (0 no effect, 100 complete control), read-out: Surinam Grass plant response rating
[13] = pre-emergence, Preemergence, scale 0 to 100, 0 no effect, 100 complete control, read-out: Plant response rating, Surinam Grass
[14] = pre-emergence, Preemergence, scale 0 to 100, read-out: Plant response rating, Surinam Grass
[15] = post-emergence, Postemergence, scale 0 to 100 (0 no effect, 100 complete control), read-out: Johnsongrass plant response rating
[16] = pre-emergence, Preemergence, scale 0 to 100, 0 no effect, 100 complete control, read-out: Plant response rating, Johnsongrass
[17] = pre-emergence, Preemergence, scale 0 to 100, read-out: Plant response rating, Johnsongrass
[18] = post-emergence, Postemergence, scale 0 to 100 (0 no effect, 100 complete control), read-out: Cocklebur plant response rating
[19] = pre-emergence, Preemergence, scale 0 to 100, 0 no effect, 100 complete control, read-out: Plant response rating, Cocklebur
[20] = pre-emergence, Preemergence, scale 0 to 100, read-out: Plant response rating, Cocklebur

Compound `COC(=O)c1nc(C(C)C)nc(N)c1Br` [Compound 3] has a pest or weed control at 31 g/ha (kochia (Kochia scoparia); post-emergence, Postemergence, read-out: Plant response rating (scale of 0 to 100), Kochia) of 20%, a pest or weed control at 62 g/ha (kochia (Kochia scoparia); [6]) of 65% and a pest or weed control at 125 g/ha (kochia (Kochia scoparia); [6]) of 90%. It also gave a pest or weed control at 250 g/ha (kochia (Kochia scoparia); post-emergence, Postemergence, scale 0 to 100, read-out: Plant response rating, Kochia) of 100%, a pest or weed control at 31 g/ha (kochia (Kochia scoparia); [7]) of 0% and a pest or weed control at 62 g/ha (kochia (Kochia scoparia); [7]) of 0%. For the same compound, the pest or weed control at 125 g/ha (kochia (Kochia scoparia); [8]) was 20%, the pest or weed control at 250 g/ha (kochia (Kochia scoparia); [8]) was 30% and the pest or weed control at 31 g/ha ([1]; post-emergence, Postemergence, read-out: Plant response rating (scale of 0 to 100), Ragweed) was 55%. It also gave a pest or weed control at 62 g/ha [1, 9] of 75%, a pest or weed control at 125 g/ha [1, 9] of 80% and a pest or weed control at 250 g/ha ([1]; post-emergence, Postemergence, scale 0 to 100, read-out: Plant response rating, Ragweed) of 95%. The pest or weed control at 31 g/ha [1, 10] was 0%, the pest or weed control at 62 g/ha [1, 10] was 0% and the pest or weed control at 125 g/ha [1, 11] was 0%. The pest or weed control at 250 g/ha [1, 11] was 45%, the pest or weed control at 31 g/ha ([2]; 31 g ai/ha, scale 0 to 100, 0 no effect, 100 complete control) was 0% and the pest or weed control at 62 g/ha ([2]; 62 g ai/ha, scale 0 to 100, 0 no effect, 100 complete control) was 0%. The pest or weed control at 125 g/ha ([2]; 125 g ai/ha, scale 0 to 100) was 0%, the pest or weed control at 250 g/ha ([2]; 250 g ai/ha, scale 0 to 100) was 20% and the pest or weed control at 125 g/ha [3, 12] was 0%. It also gave a pest or weed control at 31 g/ha ([3]; post-emergence, Postemergence, read-out: Plant response rating (scale of 0 to 100), Surinam Grass) of 0%, a pest or weed control at 62 g/ha [3, 12] of 0% and a pest or weed control at 250 g/ha ([3]; post-emergence, Postemergence, scale 0 to 100, read-out: Plant response rating, Surinam Grass) of 0%. The pest or weed control at 31 g/ha [3, 13] was 0%, the pest or weed control at 62 g/ha [3, 13] was 0% and the pest or weed control at 125 g/ha [3, 14] was 0%. It also gave a pest or weed control at 250 g/ha [3, 14] of 0%, a pest or weed control at 31 g/ha ([4]; post-emergence, Postemergence, read-out: Plant response rating (scale of 0 to 100), Johnsongrass) of 0% and a pest or weed control at 62 g/ha [4, 15] of 0%. It also gave a pest or weed control at 125 g/ha [4, 15] of 0%, a pest or weed control at 250 g/ha ([4]; post-emergence, Postemergence, scale 0 to 100, read-out: Plant response rating, Johnsongrass) of 0% and a pest or weed control at 31 g/ha [4, 16] of 0%. For the same compound, the pest or weed control at 62 g/ha [4, 16] was 0%, the pest or weed control at 125 g/ha [4, 17] was 0% and the pest or weed control at 250 g/ha [4, 17] was 0%. The pest or weed control at 31 g/ha ([5]; post-emergence, Postemergence, read-out: Plant response rating (scale of 0 to 100), Cocklebur) was 60%, the pest or weed control at 62 g/ha [5, 18] was 65% and the pest or weed control at 125 g/ha [5, 18] was 75%. It also gave a pest or weed control at 250 g/ha ([5]; post-emergence, Postemergence, scale 0 to 100, read-out: Plant response rating, Cocklebur) of 90%, a pest or weed control at 31 g/ha [5, 19] of 0% and a pest or weed control at 62 g/ha [5, 19] of 30%. It also gave a pest or weed control at 125 g/ha [5, 20] of 55% and a pest or weed control at 250 g/ha [5, 20] of 70%.
